From US20060009805A1, “Neural stimulation device employing renewable chemical stimulation” (priority 2004, published 2006)

Experiments:
[1] = cited from earlier work
[2] = tested on: rabbit retinal ganglion cells; test: Single cell recordings from axons of retinal ganglion cells stimulated by focal ejection of K+ (KCl) from a micropipette; assay type: cell-based
Experimental: Single cell recordings were made from the axons of rabbit retinal ganglion cells in vitro. Data was recorded and analyzed using Spike2 (Cambridge Electronic Design). The ganglion cells were stimulated over the optical receptive field with a multibarrel micropipette (7-barrel, FHC, Inc.) which contained various concentrations of KCl (0-30 mM in an osmotically balanced NaCl solution (˜300 mOsm). The micropipette solutions were ejected by using a mulitchannel pressure ejector (PM8000, MDI Systems). All solutions contained Azure B (0.5 mg/ml) to enable visualization of the solution being ejected. Pulse durations of 20-100 msecs were used.
Response is shown for a cell stimulated with a 20 msec pulse of 10 mM K^+, pressure of 40 p.s.i. and a volume of approximately 100 pL. […] A modest increase (10 mM) in K^+ concentration increases the spike count from 35 to 80 spikes. Further increases in concentration to 15 mM and 30 mM increases the spike rate to 240 and 272 spikes, respectively. […] The histograms are summed responses from 10 trials as indicated by the raster plot.
Data was collected from 5 cells and the total spike count was obtained from the PSTH. The spontaneous activity (control record) was subtracted, divided by the number of repetitions and the median is plotted. The error bars shown are the standard deviations normalized by the median.
The large secondary lobe in the potassium response may be due to the fluid flow pattern that may have stimulated adjacent cells. Overall receptive field size is […] for a light evoked response.

Structure (SMILES)	pKa [1]	overall receptive field size, potassium evoked response ([2]; 30 mM [K+]) [µm]	receptive field size, primary lobe, potassium evoked response ([2]; 30 mM [K+]) [µm]	increase in background K+ concentration sufficient to excite the firing of an action potential by retinal ganglion cells ([2]; rabbit retina, in vitro) [mM]	spike count (PSTH, summed responses from 10 trials) ([2]; representative cell, 10 mM K+, count without K+ increase 35) [spikes]	spike count (PSTH, summed responses from 10 trials; given as spike rate) ([2]; representative cell, 15 mM K+) [spikes]	spike count (PSTH, summed responses from 10 trials; given as spike rate) ([2]; representative cell, 30 mM K+) [spikes]
O=C(O)[C@H](O)[C@@H](O)[C@H](O)[C@H](O)CO [Gluconic acid, gluconic acid]	~3.6						
[K+] [K^+]		400	100	~10	80	240	272
